pIC50: −log10 of the molar value.
What was measured:
[1] = test system: KO99L cells (tPTEN−/− tumor cell line); assay: WST-1 cell viability assay on KO99L cells; format: cell-based, murine
Procedure: (§1) Two different assays were employed: i) In a 96-well plate format, cells (4.0±0.1×10^4 per well; 100 μL) were incubated with effectors (48 h, 37° C.; n=4 per experiment) and then WST-1 reagent (10 μL; Roche Diagnostics) added to each well of 96-well plates, incubated, and the formazan production was measured at 490 nm; and ii) cells (2.0±0.1×10^4 per well; 100 μL) were incubated with effectors (48 h, 37° C.; n=4 per experiment) and then bromodeoxyuridine reagent (10 μL/well; Roche Diagnostics) was added to each well and incubated (8 h, 37° C.). The cells were then fixed, denatured and incubated with anti-BrdU-conjugated with peroxidase (POD) antibody (100 μL/well). Colorimetric substrate (TMB: tetramethyl-benzidine; 100 μL/well) was added and BrdU incorporation quantified via optical density measurement (450 nm) which corresponds to DNA synthesis and proliferating cells.

primary T-ALL cells = assay: Cell viability of human T-ALL primary samples; format: cell-based; details: primary T-ALL cells from patients
Procedure: Informed consent was obtained according to institutional guidelines. Heparin-treated blood was obtained from three T-ALL patients and from two healthy donors. Patient lymphoblasts were isolated within 24 hours post collection using Ficoll-Paque PLUS density gradient following vendor recommended procedures (GE Healthcare Life Sciences).
as §1

[2] = test system: human Peripheral Blood Lymphocytes; assay: Proliferative response of human PBL; format: cell-based; details: 1.0-50.0 μM
KO99L cells = assay: Annexin-V / DAPI apoptosis assay, KO99L cells; format: cell-based, murine; details: 48 hr
Procedure: Apoptosis assessment was performed by measuring phosphatidyl-serine membrane redistribution via annexin-V-FITC (Invitrogen). Cells (5.0±0.1×10^5 per well; 2.0 mL) were incubated with effectors, and re-suspended in staining solution (110 μL; Annexin-V ( 1/10) and incubated in the dark (15 min, RT). […] Basal apoptosis and necrosis were determined on control untreated cells.

caspase 3 [3] = assay: Western blot of caspase 3 activation and PARP cleavage, KO99L cells; format: cell-based, murine; details: 10.0 μM
Procedure: (§2) Cell extracts were prepared using a cell lysis buffer (50 mM HEPES, pH 7.4, 150 mM NaCl, 20 mM EDTA, 100 mM NaF, 10 mM Na3VO4, 0.5% nonyl phenoxypolyethoxylethanol (NP40) supplemented with a cocktail of protease inhibitors. After SDS-PAGE separation and transfer to nitrocellulose immunoblotting was performed using the following antibodies against: Akt (Cell Signaling Technologies, #9272), CHOP (#2895), cleaved caspase 3 (#9664), c-Myc (#9402), eIF2a (#9721), 4EBP1 (#9644), LC3A/B (#12741), PARP (#9542), pJnk (T183/Y185) (#9251), pSer235-236-S6RP (#4856), pSer473-Akt (#9271), pSer65-4EBP1 (#9451) and S6RP (#2217); Bax (Sigma-Aldrich, B8429); PUMA (Abcam, ab54288); Bak (Millipore, 06536); ATF4 (Santa Cruz Biotechnologies, sc200), GADD34 (sc8327), Hsp60 (sc-1722), Hsp90 (sc-13119) and XBP1 (sc-7160); ATF6 (Imgenex, IMG-273).

primary tPTEN−/− cells = assay: Cell death of primary tPTEN−/− lines, PI staining and Facs; format: cell-based, murine; details: 2.5-20.0 μM, 48 h, five primary tumors
mTORC1 / Akt activation = assay: Western blot of S6RP, 4EBP1 and Akt phosphorylation, KO99L cells; format: cell-based, murine; details: 2.0-24 h; COMPOUND-JP 10.0 μM; MK-2206 5.0 μM; KU0063794 5.0 μM; rapamycin 10.0 nM; L-Asp, Erw 2.5 units/ml; velcade at 24 h
c-myc = assay: Western blot of c-myc levels, KO99L cells; format: cell-based, murine; details: COMPOUND-JP 10.0 μM 2.0-24 h; Velcade 8 nM 24 h; KU0063794 10.0 μM; MK-2206 10.0 μM; rapamycin 100 nM
Procedure: as §2

Bcl2 family members = assay: Western blot of Bcl2 family members, KO99L cells; format: cell-based, murine; details: 10.0 μM, starting at 6.0 h
Procedure: as §2

CHOP / mTOR = assay: Western blot of CHOP induction and S6RP phosphorylation in KO99-RJ cells; format: cell-based, murine
Procedure: as §2

[4] = test system: HT-29 cell derived from human large intestine cancer; assay: Tumor growth in nude mouse inoculated subcutaneously with HT-29 cells; format: in vivo; details: compared with untreated control group
Procedure: A HT-29 cell was inoculated subcutaneously into a mouse, and the transition of the size of the tumor lump was measured with time from the day on which the tumor has grown to a certain size, when each of COM-JP and 5-FU was used alone or in combination.

tPTEN−/− cells = assay: Global protein synthesis (data not shown); format: cell-based, murine
caspase 3 [5] = assay: Active caspase 3 staining with Red-DEVD-fmk, KO99L cells; format: cell-based, murine; details: countered by QvD-OPH
Procedure: Cells (1.0±0.1×10^6 per well; 1.0 mL) were stimulated with different COMPOUND-JP doses with or without caspase3 inhibitor Qvd-OH (20 μM). Cells were then stained with caspase 3 inhibitor conjugated (RED-DEVD-FMK; Biovision) and incubated (1.0 h, 37° C. at 5% CO2). Cells were washed with Wash Buffer, then centrifuged (3000 rpm, 5.0 min) and stained with annexin V-FITC (10 μL/mL; Miltenyi Biotech) for 30 min and DAPI (1.0 μg/mL) added prior to examination via a MacsQuant Analyser.

Nc1cc(COc2c(Cl)cc(C[C@H](N)C(=O)O)cc2Cl)c2oc(-c3ccccc3)nc2c1 [COMPOUND-JP, O-(5-amino-2-phenylbenzoxazole-7-yl)methyl-3,5-dichloro-L-tyrosine]
cell viability ([1]; KO99L cells, 2.5-10.0 μM, 48 h): dose-dependent decrease | reversal of the viability decrease by Essential Amino Acids (EAA) in the medium ([1]; KO99L cells, 2.5-10.0 μM, NEAA no rescue): partially reversed | cytotoxicity at 40 µM ([1]; Mus musculus, KO99-S (parental KO99L), 40 μM, 48 h, read-out: decrease in cell viability): 95 to 100% | pIC50 ([1]; Mus musculus, KO99L tPTEN−/− cells, 48 h, read-out: IC50, cell viability (drug concentration to kill half of the cells)): 5.62 | cell viability (COMPOUND-JP sensitivity) (primary T-ALL cells): concentration dependent | PBL cell proliferation [2]: did not significantly alter | levels of apoptosis (annexin-V+ and annexin-V+/DAPI+) compared to control (KO99L cells; 10.0 μM): 2.8 fold | levels of apoptosis (annexin-V+ and annexin-V+/DAPI+) compared to control (KO99L cells; 20.0 μM): 3.8 fold | caspase 3 cleavage (caspase 3 [3]; 48 hr): essentially all cellular caspase 3 was processed | caspase 3 cleavage (caspase 3 [3]; four-to-six hour post addition): caspase 3 cleavage could be observed | PARP cleavage (caspase 3 [3]; 24 h): fully cleaved | cell death in primary tPTEN−/− cells (primary tPTEN−/− cells): dose dependent | 4EBP1 phosphorylation (mTORC1 / Akt activation): no effect | Akt phosphorylation (serine 473) / activation (mTORC1 / Akt activation): interfered with Akt activation | S6RP phosphorylation (mTORC1 activation) (mTORC1 / Akt activation): affect mTORC1 activation as early as 2.0 h | c-myc protein level (c-myc): decreased | protein levels of four pro-apoptotic members: Bak, Bax, PUMA and Bim (Bcl2 family members): increased protein levels | integrated stress response (CHOP induction) (CHOP / mTOR): failed to trigger the integrated stress response | mTOR inhibition (S6RP phosphorylation) (CHOP / mTOR): failed to inhibit mTOR | increase of the tumor, single administration [4]: more significant decrease | interference with global protein synthesis (tPTEN−/− cells): did not observe any interference | cell-associated fluorescence via Red-DEVD-fmk (caspase 3 activation) (caspase 3 [5]): dose and time-dependent

Source: US10172835B2, “Anticancer agent composition” (J-Pharma Co., Ltd., priority 2014, dated 2019)
